Test results reported in patent US12116358B2, “Substituted indoles and methods of use thereof” (EPIZYME, INC., priority 2018, dated 2024).

Target: T1, SETD2(1434-1711) (Homo sapiens, UniProt Q9BYW2)
T1 construct: SETD2 (1434-1711) Assay; catalogue N/A
T1 sequence (Q9BYW2 1434-1711): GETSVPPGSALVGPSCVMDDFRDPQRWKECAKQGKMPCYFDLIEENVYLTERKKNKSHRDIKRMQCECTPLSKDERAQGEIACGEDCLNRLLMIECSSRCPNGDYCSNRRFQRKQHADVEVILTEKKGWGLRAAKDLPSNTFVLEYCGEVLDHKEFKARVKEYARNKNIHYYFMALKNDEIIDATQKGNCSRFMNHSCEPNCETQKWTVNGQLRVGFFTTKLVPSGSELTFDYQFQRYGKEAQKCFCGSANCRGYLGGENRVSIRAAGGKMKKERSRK
Assay: SETD2 (1434-1711) assay
Format: biochemical
Settings: read-out: SETD2 (1434-1711)

Structure (SMILES) | IC50 [µM]
Cc1cccc2cc(C(=O)NCC(O)c3c(F)cccc3F)[nH]c12 (stereo not drawn) [compound 720] | 109
Cc1cccc2cc(C(=O)Nc3ccccc3C3CCC(=O)N3)[nH]c12 (stereo not drawn) [compound 679] | 43.1
CCN1CCN(C2CCCC(NC(=O)c3cc4c(F)ccc(C)c4[nH]3)C2)CC1=O (stereo not drawn) [compound 835] | 0.1
Cc1cccc2cc(C(=O)N[C@@H](c3ccccc3)C(F)(F)F)[nH]c12 [compound 687] | 51.6
Cc1cccc2cc(C(=O)NC(CO)c3ccccc3)[nH]c12 (stereo not drawn) [compound 705] | 71.6
Cc1ccc(C)c2[nH]c(C(=O)N[C@H]3CC[C@H](N)CC3)cc12 [compound 730] | > 130
Cc1cccc2cc(C(=O)NCc3cnc[nH]3)[nH]c12 [compound 729] | 129
Cc1cccc2cc(C(=O)NC3CCCN(c4ncccn4)C3)[nH]c12 (stereo not drawn) [compound 626] | 12.5
COC(=O)C[C@@H](NC(=O)c1cc2cccc(C)c2[nH]1)c1cccnc1 [compound 658] | 26.8
Cc1cccc2cc(C(=O)NC(c3cccnc3)C3CC3)[nH]c12 (stereo not drawn) [compound 689] | 53.3
Cc1cccc2cc(C(=O)NC3CCCN(C(=O)CCCN)C3)[nH]c12 (stereo not drawn) [compound 664] | 31.7
Cc1cccc2cc(C(=O)N[C@H](CO)C(C)C)[nH]c12 [compound 763] | > 200
Cc1cccc2cc(C(=O)NC(c3cccc(F)c3)C(F)(F)F)[nH]c12 (stereo not drawn) [compound 642] | 18.6
Cc1cc(C)c2[nH]c(C(=O)N[C@H]3CC[C@H](N)CC3)cc2c1 [compound 756] | > 200
Cc1cccc2cc(C(=O)NCC(O)C(F)(F)F)[nH]c12 (stereo not drawn) [compound 678] | 39.7
Cc1cccc2cc(C(=O)NCc3cccc(CN4CCCC4)c3)[nH]c12 [compound 674] | 37
Cc1cccc2cc(C(=O)NCc3ccc(CN4CCOCC4)cc3)[nH]c12 [compound 755] | > 200
Cc1cccc2cc(C(=O)N3CCC4(CCc5ccccc54)C3)[nH]c12 (stereo not drawn) [compound 820] | > 200
CCOC(=O)N1CCC(NC(=O)c2cc3cccc(C)c3[nH]2)CC1 [compound 628] | 13.3
Cc1cccc2cc(C(=O)NC3CCCN(S(=O)(=O)CCCN)C3)[nH]c12 (stereo not drawn) [compound 646] | 20.3
Cc1cccc2cc(C(=O)NCc3ccc(S(=O)(=O)N4CCCCC4)cc3)[nH]c12 [compound 758] | > 200
Cc1cccc2cc(C(=O)NCCc3ccccc3-c3ccccc3)[nH]c12 [compound 818] | > 200

Structure (SMILES) | IC50 [µM]
Cc1cccnc1C(NC(=O)c1cc2cccc(C)c2[nH]1)C1CCNC1 (stereo not drawn) [compound 722] | 116
CC(=O)N[C@H]1CC[C@H](NC(=O)c2cc3cccc(C)c3[nH]2)CC1 [compound 698] | 63
Cc1cccc2cc(C(=O)N(C)[C@H]3CC[C@H](N)CC3)[nH]c12 [compound 761] | > 200
Cc1ccccc1C(O)CNC(=O)c1cc2cccc(C)c2[nH]1 (stereo not drawn) [compound 686] | 51.3
Cc1cccc2cc(C(=O)N[C@H]3CC[C@@](C)(NC(=O)CCN)CC3)[nH]c12 [compound 641] | 18.5
Cc1cccc2cc(C(=O)NCc3ccccc3N3CCCCC3)[nH]c12 [compound 716] | > 100
Cc1cccc2cc(C(=O)N[C@H]3C[C@H]4CC[C@@H]3CN4C(=O)CCN)[nH]c12 [compound 631] | 15.3
Cc1cccc2cc(C(=O)N3CCCC(N(C)C)C3)[nH]c12 (stereo not drawn) [compound 799] | > 200
COC(=O)CC(NC(=O)c1cc2cccc(C)c2[nH]1)c1cccc(OC)c1 (stereo not drawn) [compound 659] | 27.4
Cc1cccc2cc(C(=O)N[C@@H]3C[C@@H]4CC[C@H]3CN4C(=O)CCCN)[nH]c12 [compound 657] | 25.7
Cc1cccc2cc(C(=O)NC3CCN(S(=O)(=O)CCCN)CC3)[nH]c12 [compound 663] | 31.5
Cc1cccc2cc(C(=O)N3CCN(CC(N)=O)CC3)[nH]c12 [compound 781] | > 200
Cc1cccc2cc(C(=O)N[C@H](c3ccccc3)C(F)(F)F)[nH]c12 [compound 726] | 124
COC(=O)CC(NC(=O)c1cc2cccc(C)c2[nH]1)c1cccnc1 (stereo not drawn) [compound 671] | 35.4
Cc1ccc(F)c2cc(C(=O)N[C@@H]3CCC[C@@H](N4CCCNC(=O)C4)C3)[nH]c12 [compound 822] | 8.3
Cc1ccccc1C(NC(=O)c1cc2cccc(C)c2[nH]1)C1CC1 (stereo not drawn) [compound 801] | > 200
Cc1cccc2cc(C(=O)Nc3ccncc3)[nH]c12 [compound 632] | 15.6
Cc1cccnc1C(CCN(C)C)NC(=O)c1cc2cccc(C)c2[nH]1 (stereo not drawn) [compound 728] | 127
Cc1cccc2cc(C(=O)N[C@H]3CC[C@H](NS(=O)(=O)CCN)CC3)[nH]c12 [compound 661] | 28.7
Cc1cccc2cc(C(=O)NC(C)c3ccc(-n4cncn4)cc3)[nH]c12 (stereo not drawn) [compound 1155] | 17.2
Cc1cccc2cc(C(=O)N[C@H]3CC[C@H](C(F)(F)F)CC3)[nH]c12 [compound 780] | > 200

Second part, the molecule after the results:

IC50 [µM] | Structure (SMILES)
19.9 | Cc1cccc2cc(C(=O)N(C)[C@H]3CC[C@H](NC(=O)CCN)CC3)[nH]c12 [compound 645]
69.2 | COC(=O)C(NC(=O)c1cc2cccc(C)c2[nH]1)c1ccccc1 (stereo not drawn) [compound 701]
48.2 | COC(=O)C[C@H](NC(=O)c1cc2cccc(C)c2[nH]1)c1ccc(Cl)cc1 [compound 683]
17.5 | Cc1cccc2cc(C(=O)NC(c3ccccn3)c3ccccn3)[nH]c12 [compound 637]
70.7 | Cc1cccc2cc(C(=O)N[C@H](CO)c3ccccc3)[nH]c12 [compound 703]
13.2 | Cc1cccnc1C(CN(C)C)NC(=O)c1cc2cccc(C)c2[nH]1 (stereo not drawn) [compound 627]
10.9 | Cc1c(CN2CCOCC2)cccc1NC(=O)c1cc2cccc(C)c2[nH]1 [compound 624]
29.7 | Cc1cccc2cc(C(=O)N[C@H]3CC[C@@H](CO)CC3)[nH]c12 [compound 662]
> 200 | CCOC(=O)[C@@H]1CCCC[C@H]1NC(=O)c1cc2cccc(C)c2[nH]1 [compound 797]
1.5 | Cc1ccc(F)c2cc(C(=O)N[C@@H]3CCC[C@@H](N4CCN(C(=O)N5CCOCC5)CC4)C3)[nH]c12 [compound 829]
> 200 | COC(=O)CC(NC(=O)c1cc2cccc(C)c2[nH]1)c1ccccc1Br (stereo not drawn) [compound 774]
107 | Cc1cc(CNC(=O)c2cc3cccc(C)c3[nH]2)no1 [compound 719]
> 200 | Cc1cccc2cc(C(=O)N3CCCC(N)C3)[nH]c12 (stereo not drawn) [compound 794]
> 200 | COC(=O)CC(NC(=O)c1cc2cccc(C)c2[nH]1)c1ccc(C(C)C)cc1 (stereo not drawn) [compound 773]
113 | Cc1nc(CNC(=O)c2cc3cccc(C)c3[nH]2)c(C)o1 [compound 721]
> 200 | COC(=O)CC(NC(=O)c1cc2cccc(C)c2[nH]1)c1ccc(Br)cc1 (stereo not drawn) [compound 778]
> 200 | Cc1cccc2cc(C(=O)NC3CCCc4ccccc43)[nH]c12 (stereo not drawn) [compound 753]
> 200 | Cc1cccc2cc(C(=O)N3CCn4ncnc4C3)[nH]c12 [compound 812]
85.9 | CCc1c(C(=O)N[C@H]2CC[C@H](NC(=O)CCN)CC2)[nH]c2c(C)cccc12 [compound 711]
91.2 | Cc1cccc([C@@H](C)NC(=O)c2cc3cccc(C)c3[nH]2)c1 [compound 713]
> 200 | Cc1cccc2cc(C(=O)N[C@H]3C[C@@H](CO)C3)[nH]c12 [compound 759]

IC50 [µM] | Structure (SMILES)
> 200 | Cc1cccc2cc(C(=O)NC3CCc4ccccc43)[nH]c12 (stereo not drawn) [compound 748]
34.5 | CCC(NC(=O)c1cc2cccc(C)c2[nH]1)c1nc(C)no1 (stereo not drawn) [compound 668]
> 200 | Cc1nc(CCNC(=O)c2cc3cccc(C)c3[nH]2)no1 [compound 782]
71.9 | NC1CCC(NC(=O)c2cc3cccc(Br)c3[nH]2)CC1 (stereo not drawn) [compound 706]
16.2 | Cc1cccc2cc(C(=O)Nc3cccc(CN4CCOCC4)n3)[nH]c12 [compound 633]
> 200 | Cc1cccc2cc(C(=O)NCc3cccc(N4CCCCC4)c3)[nH]c12 [compound 750]
> 200 | Cc1cccc2cc(C(=O)NC(C3CC3)C(F)(F)F)[nH]c12 (stereo not drawn) [compound 769]
> 200 | Cc1cccc2cc(C(=O)N3CCC(=O)c4ccccc4C3)[nH]c12 [compound 814]
3 | Cc1ccc(F)c2cc(C(=O)NC3CCCC(N4CCn5c(n[nH]c5=O)C4)C3)[nH]c12 (stereo not drawn) [compound 1106]
1.2 | CCOC(=O)N1CCN([C@@H]2CCC[C@@H](NC(=O)c3cc4c(F)ccc(C)c4[nH]3)C2)CC1 [compound 825]
98.9 | Cc1cccc2cc(C(=O)NC3CCNCC3)[nH]c12 [compound 715]
> 200 | Cc1cccc2cc(C(=O)Nc3ncc4ccccc4n3)[nH]c12 [compound 804]
14.6 | CCOC(=O)C(CC1CCC1)NC(=O)c1cc2cccc(C)c2[nH]1 (stereo not drawn) [compound 630]
> 200 | Cc1cccc2cc(C(=O)N3CCn4cnnc4C3)[nH]c12 [compound 811]
> 200 | COc1ccc(C(O)CNC(=O)c2cc3cccc(C)c3[nH]2)cc1 (stereo not drawn) [compound 754]
34.5 | Cc1cccc2cc(C(=O)NC(c3cccc(CC(N)=O)n3)C3CC3)[nH]c12 (stereo not drawn) [compound 667]
62.1 | COC(=O)C[C@@H](NC(=O)c1cc2cccc(C)c2[nH]1)C(=O)OC [compound 694]
0.5 | Cc1ccc(F)c2cc(C(=O)NC3C(=O)N(C)CCc4ccccc43)[nH]c12 (stereo not drawn) [compound 390]
> 200 | Cc1cccc2cc(C(=O)NC3CCC(c4ccccc4)NC(=O)C3)[nH]c12 (stereo not drawn) [compound 816]
44.8 | Cc1cccc2cc(C(=O)NC(c3ncccn3)C3CC3)[nH]c12 (stereo not drawn) [compound 680]
